The values that follow come from patent US20090142347A1, “Tissue-Nonspecific Alkaline Phosphatase (TNAP): a Therapeutic Target for Arterial Calcification” (THE BURNHAM INSTITUTE FOR MEDICAL RESEARCH, priority 2004, published 2009).

Like-named read-outs stand apart in the source and are kept apart here.

Usually Ki stands for a measure of affinity in units of concentration, obtained from inhibition or displacement.

The test system of one series is wild-type osteoblasts. The conditions noted are these: wild-type osteoblasts treated with exogenous PPi; RT-PCR. From the text:
To determine whether affecting the function of either NPP1 or ANK would have beneficial consequences on hypophosphatasia by reducing the amounts of extracellular PPi in the Akp2−/− mice, we bred either Enpp1−/− or ank/ank mice to the Akp2−/− mice. […] Hypophosphatasia arises from deficits in TNAP activity, resulting in an increase in PPi levels and concomitant increase in OPN levels.

For a further series, the target named is T1, chTNALP (Gallus gallus, UniProt Q92058).
T1 sequence (Q92058 17-498): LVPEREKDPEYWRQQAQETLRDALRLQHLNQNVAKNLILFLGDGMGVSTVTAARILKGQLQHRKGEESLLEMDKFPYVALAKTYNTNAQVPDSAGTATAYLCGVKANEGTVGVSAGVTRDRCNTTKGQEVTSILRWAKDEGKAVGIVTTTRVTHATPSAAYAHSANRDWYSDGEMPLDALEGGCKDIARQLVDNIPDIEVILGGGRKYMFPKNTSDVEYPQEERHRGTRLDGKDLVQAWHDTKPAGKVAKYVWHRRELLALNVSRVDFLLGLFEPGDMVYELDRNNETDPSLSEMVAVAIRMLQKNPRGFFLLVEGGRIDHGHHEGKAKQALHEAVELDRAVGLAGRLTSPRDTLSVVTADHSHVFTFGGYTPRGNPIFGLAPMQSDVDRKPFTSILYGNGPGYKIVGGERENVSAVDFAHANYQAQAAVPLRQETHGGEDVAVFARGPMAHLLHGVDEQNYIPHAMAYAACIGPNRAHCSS
As to the kind of experiment: Ki of uncompetitive inhibitors (pNPP substrate). It counts as biochemical, chicken. An excerpt:
(See Kozlenkov A, et al., 2002). […] TNAP and PLAP structures were superimposed and the amino acid differences within a 12 Å radius around the catalytic Zn1 ion were pinpointed. The difference between human TNAP and chicken TNAP were also mapped because it is reported that chicken TNAP is much less susceptible to levamisol than is human TNAP. In total, six positions with amino acid differences were found, which could be clustered into two groups. […] In addition, […] and […] were also investigated.

Series [1] deals with bovine VSMC calcification. The following applies: Shioi et al., 1995; cited from earlier work.
The target in series [2] is Recombinant human FLAG-TNAP (Homo sapiens, UniProt P05186). Description: Chemical library screening, TNAP pNPP microtiter plate assay. The conditions noted are these: for inhibition response: positive controls, 0.5 mM pNPP, pH 9.8, concentration not given.
A further series has as its target T2, hPLALP D165 (Homo sapiens, UniProt P05187, N187D).
T2 construct: made in house; host or cells: COS-7 (given only for the TNAP-Flag constructs)
Description: Ki of uncompetitive inhibitors (pNPP substrate). In kind it is biochemical. The following applies: hPLALP mutant D165; read-out: Ki for various inhibitors. As for the experimental part: (§1) In brief, samples of the enzymes were added to microtiter plates coated with M2 anti-FLAG antibody, and saturating activities with the substrate pNPP were measured in 1 M DEA/HCl buffer, pH 9.8, containing 1 mM MgCl2 and 20 .micro.M ZnCl2.

A further series addresses T3, hPLALP R428 (Homo sapiens, UniProt P05187, D450R).
T3 construct: made in house; host or cells: COS-7 (given only for the TNAP-Flag constructs)
As to the kind of experiment: Ki of uncompetitive inhibitors (pNPP substrate). In kind it is biochemical. The following applies: hPLALP mutant R428; read-out: Ki for various inhibitors. On the procedure: as §1

The next series deals with T4, hPLALP G108 (Homo sapiens, UniProt P05187, Q130G).
T4 construct: made in house; host or cells: COS-7 (given only for the TNAP-Flag constructs)
Description: Ki of uncompetitive inhibitors (pNPP substrate). It counts as biochemical. The conditions noted are these: hPLALP mutant G108; read-out: Ki for various inhibitors. On the procedure: as §1

In a further series the target is T5, hPLALP (E107, G429) (Homo sapiens, UniProt P05187, E451G/F129E).
T5 construct: made in house; host or cells: COS-7 (given only for the TNAP-Flag constructs)
As to the kind of experiment: Ki of uncompetitive inhibitors (pNPP substrate). In kind it is biochemical. The conditions noted are these: hPLALP mutant (E107, G429); read-out: Ki for various inhibitors. As for the experimental part:
as §1

The next series concerns the target T6, hPLALP (G108, G429) (Homo sapiens, UniProt P05187, E451G/Q130G).
T6 construct: made in house; host or cells: COS-7 (given only for the TNAP-Flag constructs)
Description: Ki of uncompetitive inhibitors (pNPP substrate). It counts as biochemical. The conditions noted are these: hPLALP mutant (G108, G429); read-out: Ki for various inhibitors. On the procedure: as §1

A further series has as its target T7, hPLALP (Homo sapiens, UniProt P05187).
T7 construct: made in house
As to the kind of experiment: Ki of uncompetitive inhibitors (pNPP substrate). It counts as biochemical. The following applies: read-out: Ki for various inhibitors. As for the experimental part: as §1

The target of a further series is T8, hPLALP (E107, G108) (Homo sapiens, UniProt P05187, F129E/Q130G).
T8 construct: made in house; host or cells: COS-7 (given only for the TNAP-Flag constructs)
As to the kind of experiment: Ki of uncompetitive inhibitors (pNPP substrate). It counts as biochemical. The following applies: hPLALP mutant (E107, G108); read-out: Ki for various inhibitors. On the procedure:
as §1

In another series the target is T9, hPLALP (R428, H429) (Homo sapiens, UniProt P05187, D450R/E451H).
T9 construct: made in house; host or cells: COS-7 (given only for the TNAP-Flag constructs)
Description: Ki of uncompetitive inhibitors (pNPP substrate). It counts as biochemical. The conditions noted are these: hPLALP mutant (R428, H429); read-out: Ki for various inhibitors. On the procedure:
as §1

Another series concerns the target T10, hPLALP E107 (Homo sapiens, UniProt P05187, F129E).
T10 construct: made in house
Description: Ki of uncompetitive inhibitors (pNPP substrate). The conditions noted are these: hPLALP mutant E107; read-out: Ki for various inhibitors. It counts as biochemical. As for the experimental part:
as §1

Another series deals with T11, hPLALP H429 (Homo sapiens, UniProt P05187, E451H).
T11 construct: made in house; host or cells: COS-7 (given only for the TNAP-Flag constructs)
Description: Ki of uncompetitive inhibitors (pNPP substrate). The conditions noted are these: hPLALP mutant H429; read-out: Ki for various inhibitors. It counts as biochemical. On the procedure: as §1

In the next series the target is T12, hPLALP S119 (Homo sapiens, UniProt P05187, N141S).
T12 construct: made in house; host or cells: COS-7 (given only for the TNAP-Flag constructs)
As to the kind of experiment: Ki of uncompetitive inhibitors (pNPP substrate). In kind it is biochemical. The conditions noted are these: hPLALP mutant S119; read-out: Ki for various inhibitors. On the procedure:
as §1

Series [3] deals with Enpp1−/− and ank/ank mice. The conditions noted are these: subcutaneous, ALZET osmotic pumps, 10 μg/g/day, compared to control mice. As for the experimental part:
Flexibility was measured after euthanasia by determining the degree to which the root of the tail could be pulled back towards the neck, shoulders or lumbar spine until resistance prevented further flexing.
Tetramisole was delivered via ALZET osmotic pumps (Durect Corporation, Cupertino, Calif.) at a dose of 10 μg/g/day.

The conditions of series [4]: dose of 30 micrograms/g BW; results not shown. An excerpt: (§2) In one example of this pharmacological study tetramisole will be used. […] For ApoE−/− mice arterial calcification is established by 3-months of age. Thus, the pump can feasibly be planted as early as 1-month of age, allowing treatment to begin at least as early.
A further series deals with MC3T3-E1 cells.
Text: as §2

For series [5], the system named is TNAP activity in Enpp1−/− and ank/ank derived VSMC. The following applies: Enpp1−/− and ank/ank derived VSMC in vitro, tetramisole 0.125 mM, 3 weeks (FIG. 5). From the text: Left panel: A) immunofluorscent detection of smooth muscle alpha-actin. VSMCs were isolated from WT aorta by collagenase digestion, all cells were stained for actin filaments (F-actin) by rhodamine phalloidin (red), and VSMCs were stained using a specific FITC-conjugated monoclonal anti-SM-alpha-actin (green). B) Proportion of cells staining positive for SM-alpha-actin. C) Total RNA was isolated and SM alpha-actin was detected by RT-PCR analysis. Middle panel: VSMCs isolated from WT, Enpp1−/− and ank/ank mice were cultured in the presence of beta-glycerophosphate for 4 weeks. Cells were then stained for TNAP activity (pink) and using von Kossa staining, mineral was detected (black/brown). The area of the culture well in which mineralization was present was quantified by using a point-counting method in which the plate was placed on a grid (divided into 10 mm×10 mm squares) and visualized using a dissecting microscope, the percent area occupied by mineral was assessed by counting the occurrences where the presence of mineral coincided with intercepts on the grid.

A further series has as its system Akp2−/− mice. The conditions noted are these: Narisawa et al., 2001; cited from earlier work.

Sequence of Recombinant human FLAG-TNAP (P05186 18-501 limits assumed): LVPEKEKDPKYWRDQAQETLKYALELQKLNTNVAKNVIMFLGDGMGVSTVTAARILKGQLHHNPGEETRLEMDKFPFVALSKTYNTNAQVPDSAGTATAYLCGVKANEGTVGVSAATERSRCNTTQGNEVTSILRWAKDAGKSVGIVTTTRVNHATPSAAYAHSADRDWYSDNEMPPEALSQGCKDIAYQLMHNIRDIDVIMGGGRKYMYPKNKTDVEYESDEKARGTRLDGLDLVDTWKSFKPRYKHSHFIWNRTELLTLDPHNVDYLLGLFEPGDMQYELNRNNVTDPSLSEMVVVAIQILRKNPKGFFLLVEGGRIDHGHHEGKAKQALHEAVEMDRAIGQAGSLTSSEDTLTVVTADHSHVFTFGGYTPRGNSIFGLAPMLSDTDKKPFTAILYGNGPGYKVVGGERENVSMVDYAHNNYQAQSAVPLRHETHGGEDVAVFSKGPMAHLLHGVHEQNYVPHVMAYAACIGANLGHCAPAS
T11 sequence (P05187 23-506 E451H limits assumed): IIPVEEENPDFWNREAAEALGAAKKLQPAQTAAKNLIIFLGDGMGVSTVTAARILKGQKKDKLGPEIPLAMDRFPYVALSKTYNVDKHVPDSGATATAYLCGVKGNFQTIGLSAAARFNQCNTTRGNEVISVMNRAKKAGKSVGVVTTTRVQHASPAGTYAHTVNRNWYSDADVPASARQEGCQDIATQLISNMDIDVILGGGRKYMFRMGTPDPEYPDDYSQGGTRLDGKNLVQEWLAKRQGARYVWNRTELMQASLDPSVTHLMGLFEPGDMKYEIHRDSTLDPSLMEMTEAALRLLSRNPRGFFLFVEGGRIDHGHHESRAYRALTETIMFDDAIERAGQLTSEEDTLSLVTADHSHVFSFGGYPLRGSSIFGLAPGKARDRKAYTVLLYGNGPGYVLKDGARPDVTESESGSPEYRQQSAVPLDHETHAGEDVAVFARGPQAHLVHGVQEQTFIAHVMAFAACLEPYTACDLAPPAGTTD
T5 sequence (P05187 23-506 F129E/E451G limits assumed): as the sequence (P05187 23-506 E451H limits assumed) above, with F107E, H429G counted along it
T10 sequence (P05187 23-506 F129E limits assumed): as the sequence (P05187 23-506 E451H limits assumed) above, with F107E, H429E counted along it
T6 sequence (P05187 23-506 Q130G/E451G limits assumed): as the sequence (P05187 23-506 E451H limits assumed) above, with Q108G, H429G counted along it
T3 sequence (P05187 23-506 D450R limits assumed): as the sequence (P05187 23-506 E451H limits assumed) above, with D428R, H429E counted along it
T8 sequence (P05187 23-506 F129E/Q130G limits assumed): as the sequence (P05187 23-506 E451H limits assumed) above, with F107E, Q108G, H429E counted along it
T4 sequence (P05187 23-506 Q130G limits assumed): as the sequence (P05187 23-506 E451H limits assumed) above, with Q108G, H429E counted along it
T12 sequence (P05187 23-506 N141S limits assumed): as the sequence (P05187 23-506 E451H limits assumed) above, with N119S, H429E counted along it
T7 sequence (P05187 23-506 limits assumed): as the sequence (P05187 23-506 E451H limits assumed) above, with H429E counted along it
T9 sequence (P05187 23-506 D450R/E451H limits assumed): as the sequence (P05187 23-506 E451H limits assumed) above, with D428R counted along it
T2 sequence (P05187 23-506 N187D limits assumed): as the sequence (P05187 23-506 E451H limits assumed) above, with N165D, H429E counted along it

Consider `O=P(O)(O)OP(=O)(O)O` [PPi, Inorganic pyrophosphate], for which, in the series on wild-type osteoblasts, the “NPP1 and ANK expression” value is “decreased NPP1 and ANK expression”; the OPN expression result is recorded as “increase in OPN expression”.
Turning to `Cn1c(=O)c2[nH]cnc2n(C)c1=O` [Theophylline, theophylline], the inhibitory constant (Ki) at chTNALP (Ki for various inhibitors, (1)*, (1)*: 1 mM pNPP) was found to be 393 ± 150 µM; on chTNALP (Ki for various inhibitors, (20)*, (20)*: 20 mM pNPP) it was 111 ± 8 µM.
Turning to `c1ccc([C@H]2CN3CCSC3=N2)cc1` [Levamisole], in series [1], the “bovine VSMC calcification” value is on record as “blocks bovine VSMC calcification in a dose-dependent manner”. Moreover, the inhibition constant (Ki) at chTNALP (read-out: Ki for various inhibitors) amounted to 136 ± 20 µM; on hPLALP D165, 680 ± 140 µM; on hPLALP R428 it was 460 ± 40 µM; on hPLALP G108 it was 458 ± 30 µM; at hPLALP (E107, G429), 535 ± 80 µM; at hPLALP (G108, G429), 480 ± 60 µM. For the same compound, the Ki stood at 563 ± 56 µM on hPLALP; 1150 ± 60 µM on hPLALP (E107, G108); 34 ± 1 µM at hPLALP (R428, H429); 1050 ± 40 µM on hPLALP E107; 50 ± 3 µM at hPLALP H429; 630 ± 90 µM at hPLALP S119. For the same compound, in series [2], the inhibition response result was “around 50%”. Besides, the “inhibition of the enzymatic activity of TNAP (confirmed screening hits)” value in series [2] (screen of 53,080 compounds) is on record as “inhibit the enzymatic activity of TNAP”.
In the case of phosphate, the inhibition response result in [2] is reported as “around 50%”.
Consider `c1ccc(C2CN3CCSC3=N2)cc1` (stereo not drawn) [tetramisole], for which the “flexibility of the spine” value in series [3] is listed as “enhanced flexibility of the spine”. The tolerability result in [4] is recorded as “well tolerated”. In the series with MC3T3-E1 cells, the PPi levels result is recorded as “raise PPi levels”. In addition, the “TNAP activity in VSMC” value in series [5] is recorded as “inhibits TNAP activity”; in [5] (listed as Tetramisole), “normalize TNAP activity”.
As to `Cc1ncc(CO)c(C=O)c1O` [pyridoxal], in the series on Akp2−/− mice, the “apoptosis in the thymus and the lumbar nerve roots” value was “reverses apoptosis”; the epileptic seizures entry is “suppresses the epileptic seizures”.
